Measured values reported in ChEMBL document CHEMBL4052642, “4-Methyl-6,7-dihydro-4H-triazolo[4,5-c]pyridine-Based P2X7 Receptor Antagonists: Optimization of Pharmacokinetic Properties Leading to the Identification of a Clinical Candidate” (J Med Chem, 2017).
In brackets after ≈: the same amount, converted by molar mass.

What was measured:
[1] = Oral bioavailability in Sprague-Dawley rat at 5 mg/kg by LC-MS/MS analysis; assay type: ADME, organism-based; settings: in vivo
[2] = target: Cytochrome P450 2C19 (Homo sapiens, UniProt P33261); assay: Drug metabolism assessed as recombinant human CYP2C19-mediated metabolite formation; assay type: ADME; settings: recombinant enzyme
Chain of Cytochrome P450 2C19 (P33261 whole entry): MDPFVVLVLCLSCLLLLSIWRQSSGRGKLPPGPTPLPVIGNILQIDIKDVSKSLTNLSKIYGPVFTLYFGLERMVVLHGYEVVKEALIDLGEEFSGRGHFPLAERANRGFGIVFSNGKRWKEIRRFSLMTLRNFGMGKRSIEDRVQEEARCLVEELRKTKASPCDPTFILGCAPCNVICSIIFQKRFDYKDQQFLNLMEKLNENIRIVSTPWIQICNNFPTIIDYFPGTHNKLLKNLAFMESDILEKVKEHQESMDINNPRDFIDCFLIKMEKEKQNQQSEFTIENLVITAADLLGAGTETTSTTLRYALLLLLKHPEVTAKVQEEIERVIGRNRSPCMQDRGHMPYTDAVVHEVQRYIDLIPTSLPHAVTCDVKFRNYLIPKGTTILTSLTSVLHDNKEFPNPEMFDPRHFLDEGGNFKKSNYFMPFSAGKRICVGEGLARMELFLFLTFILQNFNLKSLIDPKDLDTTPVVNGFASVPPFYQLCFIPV

[3] = test system: Liver; assay: Drug metabolism in human liver microsomes assessed as oxidation of methyl group on pyrimidine at 1 uM after 5 to 60 mins by LC-MS/MS analysis; assay type: ADME, microsome
[4] = test system: Liver; assay: Drug metabolism in rat liver microsomes assessed as oxidation of methyl group on pyrimidine at 1 uM after 5 to 60 mins by LC-MS/MS analysis; assay type: ADME, microsome
[5] = Clearance in Sprague-Dawley rat at 1 mg/kg, iv or 5 mg/kg, po by LC-MS/MS analysis; assay type: ADME, organism-based; settings: in vivo
[6] = test system: Liver; assay: Drug metabolism in mouse liver microsomes assessed as oxidation of methyl group on pyrimidine at 1 uM after 5 to 60 mins by LC-MS/MS analysis; assay type: ADME, microsome
[7] = Drug metabolism in cynomolgus monkey liver microsomes assessed as oxidation of methyl group on pyrimidine at 1 uM after 5 to 60 mins by LC-MS/MS analysis; assay type: ADME, Macaca fascicularis, microsome
[8] = Clearance in beagle dog at 0.5 mg/kg, iv or 2.5 mg/kg, po by LC-MS/MS analysis; assay type: ADME, organism-based, Canis lupus familiaris; settings: in vivo
[9] = Protein binding in rat brain at 5 uM after 5 hrs by equilibrium dialysis method; assay type: ADME, tissue-based; settings: read-out: PB (converted)
[10] = Half life in beagle dog at 0.5 mg/kg, iv by LC-MS/MS analysis; assay type: ADME, organism-based, Canis lupus familiaris; settings: in vivo
[11] = Protein binding in mouse plasma at 1 uM after 6 hrs by equilibrium dialysis method; assay type: ADME, cell-free; settings: read-out: PPB (converted)
[12] = Volume of distribution at steady state in Sprague-Dawley rat at 1 mg/kg, iv or 5 mg/kg, po by LC-MS/MS analysis; assay type: ADME, organism-based; settings: in vivo, read-out: Vdss
[13] = test system: Rattus norvegicus; assay: Toxicity in rat assessed as increase in liver weight at 50 to 500 mg/kg administered via oral gavage on day 1 and day 4; assay type: organism-based; settings: in vivo
[14] = Solubility of compound in phosphate buffer at pH 2 after 3 days; assay type: physicochemical
[15] = test system: Rattus norvegicus; assay: Ex vivo receptor occupancy at P2X7 in po dosed Sprague-Dawley rat brain assessed as plasma concentration required to achieve EC50 after 60 mins by autoradiography; assay type: functional, organism-based
[16] = Protein binding in human plasma at 1 uM after 6 hrs by equilibrium dialysis method; assay type: ADME, cell-free; settings: read-out: PPB (converted)
[17] = test system: Rattus norvegicus; assay: Ex vivo receptor occupancy at P2X7 in po dosed Sprague-Dawley rat brain after 60 mins by autoradiography; assay type: functional; settings: 1 h
[18] = Volume of distribution at steady state in beagle dog at 0.5 mg/kg, iv or 2.5 mg/kg, po by LC-MS/MS analysis; assay type: ADME, organism-based, Canis lupus familiaris; settings: in vivo, read-out: Vdss
[19] = Oral bioavailability in beagle dog at 2.5 mg/kg by LC-MS/MS analysis; assay type: ADME, organism-based, Canis lupus familiaris; settings: beagle, in vivo
[20] = Half life in Sprague-Dawley rat at 1 mg/kg, iv by LC-MS/MS analysis; assay type: ADME, organism-based; settings: in vivo
[21] = test system: Liver; assay: Drug metabolism in dog liver microsomes assessed as oxidation of methyl group on pyrimidine at 1 uM after 5 to 60 mins by LC-MS/MS analysis; assay type: ADME, Canis lupus familiaris, microsome
[22] = Protein binding in rat plasma at 1 uM after 6 hrs by equilibrium dialysis method; assay type: ADME, cell-free; settings: read-out: PPB (converted)
[23] = Solubility of compound in phosphate buffer at pH 7 after 3 days; assay type: physicochemical
[24] = test system: Rattus norvegicus; assay: Toxicity in rat assessed as autoinduction at 50 to 500 mg/kg administered via oral gavage on day 1 and day 5; assay type: organism-based; settings: in vivo

bioavailability [1]: 3%
Drug metabolism [2]: Metabolite_Detected
Drug metabolism [3]: Metabolite_Detected
Drug metabolism [4]: Metabolite_Detected
clearance [5]: 64 mL/min/kg
Drug metabolism [6]: Metabolite_Detected
Drug metabolism [7]: Metabolite_Detected
clearance [8]: 21 mL/min/kg
fraction unbound at 5 h, 5 µM [9]: 0.041
half-life [10]: 42 min
fraction unbound at 6 h, 1 µM [11]: 0.095
Vd [12]: 1.6 L/kg
solubility at 72 h [14]: 328 µM (≈ 143 µg/mL)
Cp [15]: 51 ng/mL
fraction unbound at 6 h, 1 µM [16]: 0.085
Vd [18]: 1.8 L/kg
bioavailability [19]: 86%
half-life [20]: 48 min
Drug metabolism [21]: Metabolite_Detected
fraction unbound at 6 h, 1 µM [22]: 0.095
solubility at 72 h [23]: 283 µM (≈ 124 µg/mL)
Compound: Cc1ccnc(-n2nnc3c2CCN(C(=O)c2cccc(C(F)(F)F)c2Cl)[C@@H]3C)n1
Activity [13]: Toxic
ED50 [17]: 8.3 mg/kg
Activity [24]: Toxic
